Results taken from ChEMBL document CHEMBL1201862, “PubChem BioAssay data set” (2004).
Where “and” joins values, the source holds several entries; their conditions need not be identical. Identical values can stand only once.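 Cultured in 96-well plates, cells were exposed to test compound for 48 hours across five concentrations. Abbreviation: GI50, concentration required for 50% inhibition of growth.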 Calls of active or inactive are those of the source. Cut-off read from the data, not from the text of the source: active = GI50 up to about 1.1 µM and inactive = higher.

Experiments:
Assay in all cases: growth of human tumour cells (NCI), 48 h
OVCAR-3 = system: OVCAR-3
UACC-257 = system: UACC-257
SN12C = system: SN12C
OVCAR-4 = system: OVCAR-4
RPMI-8226 = system: RPMI-8226
ACHN = system: ACHN
A549 = system: A549
A498 = system: A498
KM12 = system: KM12
NCI-H23 = system: NCI-H23
RXF 393 = system: RXF 393
MDA-N = system: MDA-N
HL-60 = system: HL-60
NCI-H226 = system: NCI-H226
K562 = system: K562
SK-MEL-5 = system: SK-MEL-5
UO-31 = system: UO-31

Measured: GI50

NC(=S)NS(=O)(=O)c1ccc(F)cc1F
inactive: OVCAR-3 > 100 µM | UACC-257 > 100 µM | SN12C > 100 µM | OVCAR-4 > 100 µM | RPMI-8226 > 100 µM | ACHN > 100 µM | A549 > 100 µM | A498 > 100 µM | KM12 > 100 µM | NCI-H23 > 100 µM | RXF 393 > 100 µM | MDA-N > 100 µM | HL-60 > 100 µM | NCI-H226 > 100 µM | K562 > 100 µM | SK-MEL-5 > 100 µM

O=C1c2ccccc2-c2oc(=O)c3ccccc3c21
inactive: OVCAR-3 > 100 µM | UO-31 > 100 µM | UACC-257 > 100 µM | SN12C > 100 µM | OVCAR-4 > 100 µM | RPMI-8226 41.3 µM | ACHN > 100 µM | A498 > 100 µM | KM12 > 100 µM | NCI-H23 > 100 µM | RXF 393 > 100 µM | MDA-N > 100 µM | HL-60 > 100 µM | NCI-H226 > 100 µM | SK-MEL-5 > 100 µM

CC(=O)Oc1ccc(/C=C/C(=O)NCCOC(=O)/C=C/c2ccc(OC(C)=O)c(OC(C)=O)c2)cc1OC(C)=O
inactive: OVCAR-3 16.1 µM | UO-31 22.9 µM | UACC-257 31.3 µM | SN12C 26.1 µM | OVCAR-4 18.4 µM | RPMI-8226 26.2 µM | ACHN 26.2 µM | A549 57.5 µM | A498 31.7 µM | KM12 32.4 µM | NCI-H23 26.4 µM | RXF 393 11.7 µM | MDA-N 22.5 µM | K562 32.4 µM | SK-MEL-5 17.6 µM

C=C(C)C1CC/C(C)=C/CCC2(C)OC2CC/C(CO)=C\C1O (stereo unspecified)
inactive: OVCAR-3 > 100 µM | UO-31 > 100 µM | UACC-257 > 100 µM | SN12C > 100 µM | OVCAR-4 > 100 µM | RPMI-8226 42.4 µM | ACHN > 100 µM | A549 > 100 µM | A498 > 100 µM | KM12 > 100 µM | NCI-H23 > 100 µM | RXF 393 > 100 µM | MDA-N > 100 µM | HL-60 59.2 µM | NCI-H226 > 100 µM | K562 42 µM

O=C1Nc2nnc(S)n2NC12c1ccccc1-c1ccccc12
inactive: OVCAR-3 > 100 µM | UO-31 > 100 µM | UACC-257 17.2 µM | SN12C > 100 µM | OVCAR-4 19.1 µM | ACHN > 100 µM | A549 > 100 µM | A498 > 100 µM | NCI-H23 > 100 µM | RXF 393 > 100 µM | MDA-N 34.5 µM | HL-60 > 100 µM | NCI-H226 > 100 µM | SK-MEL-5 > 100 µM

O=C(CC(C(=O)c1cccs1)c1ccsc1)c1ccsc1 (stereo unspecified)
inactive: OVCAR-3 40.2 µM | UO-31 31.4 µM | UACC-257 70.5 µM | SN12C 52 µM | OVCAR-4 27.4 µM | RPMI-8226 27.1 µM | ACHN 58.2 µM | A549 45.8 µM | A498 11.4 µM | KM12 42.9 µM | NCI-H23 53 µM | RXF 393 25.6 µM | MDA-N > 10 µM | HL-60 40.1 µM | K562 27.4 µM | SK-MEL-5 16.1 µM

COC(=O)CCC1(O)C=CC(=O)C=C1
inactive: OVCAR-3 24.4 µM | UO-31 55 µM | UACC-257 17.1 µM | SN12C 57.1 µM | OVCAR-4 65.8 µM | RPMI-8226 31.7 µM | ACHN 51.6 µM | A549 > 100 µM | A498 > 100 µM | KM12 > 100 µM | NCI-H23 33.7 µM | RXF 393 23.6 µM | MDA-N 63.4 µM | NCI-H226 > 100 µM | K562 38.9 µM | SK-MEL-5 31.9 µM

CCOC(=O)NC(C(F)(F)F)(C(F)(F)F)P(=O)(OCC)OCC
inactive: OVCAR-3 45.2 µM | UO-31 24.3 µM | SN12C 32.8 µM | OVCAR-4 18.7 µM | RPMI-8226 24 µM | ACHN 35.9 µM | A498 46.3 µM | KM12 43.9 µM | NCI-H23 34.5 µM | RXF 393 11.9 µM | MDA-N 29.2 µM | HL-60 65.2 µM | NCI-H226 54.1 µM | K562 10.9 µM

O=C(O)c1ccc(OCc2nc3cc(C(F)(F)F)ccc3nc2-c2ccccc2)cc1
inactive: OVCAR-3 34.8 µM | UO-31 22 µM | UACC-257 78.7 µM | SN12C 60.4 µM | ACHN 30.9 µM | A549 39.2 µM | A498 > 100 µM | KM12 30.1 µM | NCI-H23 36.8 µM | RXF 393 36.8 µM | MDA-N 46.1 µM | HL-60 40 µM | NCI-H226 91.4 µM | K562 39.4 µM | SK-MEL-5 32.1 µM

C=CCc1ccccc1CC1(OCC)OC(=O)c2ccccc21 (stereo unspecified)
inactive: OVCAR-3 41.2 µM | UO-31 > 100 µM | UACC-257 60.7 µM | SN12C 87.7 µM | OVCAR-4 > 100 µM | RPMI-8226 17 µM | ACHN > 100 µM | A549 > 100 µM | A498 > 100 µM | NCI-H23 56.5 µM | RXF 393 > 100 µM | MDA-N 31.3 µM | NCI-H226 > 100 µM | K562 51.8 µM | SK-MEL-5 39.9 µM

CC1(C)C2CCC1(C)C(N/C(=C(/C(Cl)=C(Cl)Cl)[N+](=O)[O-])n1nnc3ccccc31)C2 (stereo unspecified)
inactive: OVCAR-3 12.4 µM | UO-31 21 µM | UACC-257 38.6 µM | SN12C 41.8 µM | OVCAR-4 24.1 µM | RPMI-8226 25.7 µM | ACHN 20.9 µM | A549 33.7 µM | A498 19.9 µM | KM12 21.8 µM | NCI-H23 22.4 µM | RXF 393 19.2 µM | MDA-N 36.4 µM | NCI-H226 19.5 µM

CN1Cc2ccccc2/C=C\c2ccccc21
inactive: OVCAR-3 47.3 µM | UO-31 80.2 µM | UACC-257 > 100 µM | SN12C 83.4 µM | OVCAR-4 38.5 µM | RPMI-8226 25.4 µM | ACHN > 100 µM | A549 50.1 µM | A498 69.5 µM | KM12 52.4 µM | NCI-H23 62.1 µM | RXF 393 30.1 µM | MDA-N 42.2 µM | NCI-H226 > 100 µM | SK-MEL-5 40.2 µM

CN(C)c1ccc(C2CC(c3ccc4ccccc4c3O)=NN2c2ccc([N+](=O)[O-])cc2[N+](=O)[O-])cc1 (stereo unspecified)
inactive: OVCAR-3 22 µM | UO-31 27.4 µM | UACC-257 58.5 µM | SN12C 50.7 µM | OVCAR-4 > 100 µM | ACHN > 100 µM | A549 32.3 µM | A498 68.4 µM | KM12 24.4 µM | NCI-H23 17 µM | RXF 393 41.2 µM | MDA-N 16.3 µM | NCI-H226 89.5 µM

C=CCSC1=N/C(=C\c2ccc(C)cc2)C(=O)N1CC=C
inactive: OVCAR-3 57.5 µM | UO-31 22.9 µM | UACC-257 25.6 µM | SN12C 12.7 µM | OVCAR-4 27.3 µM | RPMI-8226 13.9 µM | ACHN 36.1 µM | A549 21.3 µM | A498 13.6 µM | KM12 23.7 µM | NCI-H23 32.7 µM | RXF 393 15.3 µM | MDA-N 18.6 µM | HL-60 12.2 µM | K562 10.4 µM | SK-MEL-5 14.3 µM

CCCCC1=C(C(=O)N2CCOCC2)C2(OCCO2)C1Cl (stereo unspecified)
inactive: UO-31 56.6 µM | UACC-257 24.3 µM | SN12C 22.2 µM | OVCAR-4 28.8 µM | ACHN 20 µM | A549 20.6 µM | A498 66.7 µM | KM12 20.7 µM | NCI-H23 25.5 µM | RXF 393 29.5 µM | MDA-N 14.8 µM | HL-60 > 100 µM | NCI-H226 35.8 µM | SK-MEL-5 18.5 µM

C=C(C(=O)O)[C@@H]1C[C@@H]2O[C@H]1[C@@H](O)[C@@H](C)CCCC(C)=CCC[C@@]2(C)O
inactive: OVCAR-3 > 100 µM and > 88.7 µM | UO-31 > 100 µM and 69 µM | UACC-257 > 100 µM | SN12C > 100 µM | OVCAR-4 > 100 µM | ACHN 90.6 µM | A549 > 100 µM | A498 > 100 µM | KM12 > 100 µM | NCI-H23 > 100 µM | RXF 393 > 100 µM and > 89.1 µM | MDA-N 59.4 µM and 71.1 µM | NCI-H226 > 100 µM | SK-MEL-5 > 100 µM and > 91.6 µM

O=C(Nc1ccc(Cl)cc1Cl)c1cc2nc3ccccc3c(=O)n2c2ccccc12
inactive: OVCAR-3 > 10 µM | UO-31 > 10 µM | UACC-257 > 10 µM | A549 > 10 µM | A498 > 10 µM | KM12 > 10 µM | NCI-H23 > 10 µM | RXF 393 > 10 µM | MDA-N > 10 µM | HL-60 > 10 µM | K562 > 10 µM | SK-MEL-5 > 10 µM

CC(=O)OCC1OC(N2C(=O)CC(N)=Nc3ccccc32)C(OC(C)=O)C(OC(C)=O)C1OC(C)=O (stereo unspecified)
inactive: OVCAR-3 52.6 µM | UO-31 > 100 µM | UACC-257 32.4 µM | SN12C 58.2 µM | OVCAR-4 57.8 µM | RPMI-8226 14.4 µM | ACHN 66.5 µM | A549 > 100 µM | A498 62.8 µM | KM12 45.2 µM | NCI-H23 43.2 µM | RXF 393 23.1 µM | MDA-N 32.7 µM | HL-60 67.3 µM | K562 32.6 µM | SK-MEL-5 17 µM
